Experimental data: the supplement of paper PMC6045584
± gives the standard deviation of the averaged measurements.

Tests used:
GEFITINIB = compound: COc1cc2ncnc(Nc3ccc(F)c(Cl)c3)c2cc1OCCCN1CCOCC1 [GEFITINIB]; assay: surviving fraction relative to DMSO-only wells; higher = less growth inhibition; conditions: exposure time: 5 days
How it was run: (§1)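 In 384-well plates, 250–500 log-phase tumour cells per well were given 24 hours before five days of continuous exposure to inhibitors at 0.5, 1, 5, 10, 50, 100, 500 and 1000 nM. Surviving fraction is luminescence from CellTiter-Glo, normalised to the median of wells containing DMSO alone. Reading took place after 10 minutes at room temperature.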

[1] = compound: CC(=O)NCC(=O)N1[C@@H]2CC[C@H]1c1ccc(Nc3ncc(C(F)(F)F)c(NC4CCC4)n3)cc12; assay: as above; conditions: exposure time: 5 days
How it was run: as §1

| Test System | surviving fraction (GEFITINIB; 0.5 nM) | surviving fraction (GEFITINIB; 1 nM) | surviving fraction (GEFITINIB; 5 nM) | surviving fraction (GEFITINIB; 10 nM) | surviving fraction (GEFITINIB; 50 nM) | surviving fraction (GEFITINIB; 100 nM) | surviving fraction (GEFITINIB; 500 nM) | surviving fraction (GEFITINIB; 1000 nM) | surviving fraction ([1]; 0.5 nM) | surviving fraction ([1]; 1 nM) | surviving fraction ([1]; 5 nM) | surviving fraction ([1]; 10 nM) | surviving fraction ([1]; 50 nM) | surviving fraction ([1]; 100 nM) | surviving fraction ([1]; 500 nM) | surviving fraction ([1]; 1000 nM) |
| --- | --- | --- | --- | --- | --- | --- | --- | --- | --- | --- | --- | --- | --- | --- | --- | --- |
| JURKAT HAEMATOPOIETIC AND LYMPHOID TISSUE | 1.07 ± 0.016 | 1.09 ± 0.041 | 1.062 ± 0.0078 | 1.07 ± 0.021 | 1.05 ± 0.028 | 1.03 ± 0.025 | 1.02 ± 0.018 | 1.016 ± 0.0051 | 1.07 ± 0.015 | 1.06 ± 0.028 | 1.07 ± 0.012 | 1.03 ± 0.03 | 0.286 ± 0.012 | 0.677 ± 0.018 | 0.395 ± 0.01 | 0.305 ± 0.019 |
| SYO1 SYNOVIAL | 1.05 ± 0.068 | 0.97 ± 0.049 | 0.982 ± 0.068 | 0.98 ± 0.012 | 0.984 ± 0.017 | 0.898 ± 0.024 | 1 ± 0.021 | 0.935 ± 0.024 | 0.943 ± 0.061 | 0.955 ± 0.024 | 0.93 ± 0.08 | 0.893 ± 0.078 | 0.388 ± 0.06 | 0.266 ± 0.027 | 0.2212 ± 0.0014 | 0.237 ± 0.013 |
| COLO320DM LARGE INTESTINE | 1.17 ± 0.07 | 1.21 ± 0.051 | 1.13 ± 0.081 | 1.1 ± 0.026 | 1.14 ± 0.085 | 1.2 ± 0.1 | 1.05 ± 0.14 | 1.06 ± 0.094 | 1.1 ± 0.058 | 1.09 ± 0.077 | 0.979 ± 0.086 | 0.954 ± 0.035 | 0.573 ± 0.087 | 0.559 ± 0.02 | 0.283 ± 0.0029 | 0.237 ± 0.015 |
| JIMT1 BREAST | 1.02 ± 0.051 | 1.02 ± 0.016 | 1.03 ± 0.028 | 1.02 ± 0.022 | 1.06 ± 0.027 | 1.03 ± 0.046 | 0.811 ± 0.043 | 0.773 ± 0.047 | 0.996 ± 0.044 | 1.01 ± 0.032 | 1 ± 0.036 | 0.97 ± 0.02 | 1.03 ± 0.053 | 0.763 ± 0.024 | 0.705 ± 0.0076 | 0.593 ± 0.029 |
| SUM149 BREAST | 1.16 ± 0.077 | 1.15 ± 0.098 | 1.08 ± 0.052 | 1.15 ± 0.12 | 0.926 ± 0.016 | 0.8 ± 0.026 | 0.487 ± 0.04 | 0.448 ± 0.076 | 0.949 ± 0.11 | 1.02 ± 0.11 | 1.07 ± 0.089 | 0.986 ± 0.056 | 0.67 ± 0.074 | 0.389 ± 0.071 | 0.267 ± 0.029 | 0.224 ± 0.032 |
| 93VU HEADNECK |  | 1.07 ± 0.075 | 1.08 ± 0.027 | 1.04 ± 0.055 | 0.878 ± 0.044 | 0.751 ± 0.034 | 0.449 ± 0.044 | 0.383 ± 0.062 | 0.823 ± 0.059 | 0.803 ± 0.035 | 0.951 ± 0.029 | 1 ± 0.061 | 0.895 ± 0.055 | 0.682 ± 0.0098 | 0.331 ± 0.043 | 0.114 ± 0.021 |
| CASKI CERVIX | 0.956 ± 0.025 | 0.929 ± 0.096 | 0.851 ± 0.032 | 0.815 ± 0.042 | 0.556 ± 0.015 | 0.471 ± 0.011 | 0.308 ± 0.018 | 0.213 ± 0.0095 | 0.928 ± 0.014 | 0.939 ± 0.042 | 0.968 ± 0.072 | 0.946 ± 0.067 | 0.771 ± 0.049 | 0.214 ± 0.018 | 0.199 ± 0.015 | 0.133 ± 0.0061 |
| A549 LUNG | 1.05 ± 0.043 | 1.05 ± 0.024 | 1.07 ± 0.04 | 1.02 ± 0.013 | 1.05 ± 0.033 | 1.05 ± 0.051 | 1.05 ± 0.047 | 1.03 ± 0.037 | 0.952 ± 0.013 | 0.93 ± 0.018 | 0.906 ± 0.016 | 0.911 ± 0.014 | 0.686 ± 0.024 | 0.65 ± 0.031 | 0.585 ± 0.014 | 0.445 ± 0.022 |
| HT1080 SOFT TISSUE | 1.05 ± 0.016 | 1.05 ± 0.035 | 1.05 ± 0.069 | 1.11 ± 0.036 | 1.01 ± 0.029 | 1.03 ± 0.028 | 1.042 ± 0.0056 | 1.01 ± 0.034 | 0.998 ± 0.035 | 0.983 ± 0.011 | 0.964 ± 0.05 | 0.961 ± 0.031 | 0.66 ± 0.0067 | 0.404 ± 0.011 | 0.303 ± 0.004 | 0.281 ± 0.0093 |
| SUM44 BREAST | 1.27 ± 0.43 |  | 1.2 ± 0.32 | 1.19 ± 0.23 | 1.45 ± 0.42 | 1.33 ± 0.32 | 1.33 ± 0.49 | 1.14 ± 0.22 | 1.04 ± 0.039 | 0.997 ± 0.013 | 1.09 ± 0.028 | 1.06 ± 0.13 | 1.09 ± 0.025 | 1.27 ± 0.045 | 1.4 ± 0.056 | 1.26 ± 0.051 |
| NY BONE | 0.999 ± 0.032 | 1 ± 0.035 | 1.09 ± 0.036 | 1.06 ± 0.031 | 1.07 ± 0.026 | 1.14 ± 0.016 | 0.998 ± 0.019 | 0.969 ± 0.032 | 0.962 ± 0.012 | 0.941 ± 0.029 | 0.9803 ± 0.0061 | 0.964 ± 0.03 | 0.69 ± 0.011 | 0.672 ± 0.025 | 0.432 ± 0.025 | 0.129 ± 0.0021 |
| VCAP PROSTATE | 1.13 ± 0.089 | 1.11 ± 0.14 | 1.13 ± 0.12 | 1.15 ± 0.14 | 1.19 ± 0.083 | 1.08 ± 0.056 | 1.21 ± 0.16 | 1.07 ± 0.076 | 1.06 ± 0.051 | 1.05 ± 0.086 | 1.08 ± 0.11 | 0.935 ± 0.053 | 0.681 ± 0.075 | 0.603 ± 0.016 | 0.433 ± 0.021 | 0.327 ± 0.038 |
| HCC78 LUNG | 1.03 ± 0.2 | 0.938 ± 0.12 | 1.01 ± 0.1 | 0.994 ± 0.12 | 0.967 ± 0.12 | 0.963 ± 0.067 | 0.711 ± 0.23 | 0.668 ± 0.19 | 0.885 ± 0.16 | 0.798 ± 0.052 | 0.935 ± 0.13 | 0.878 ± 0.28 | 0.735 ± 0.07 | 0.188 ± 0.064 | 0.236 ± 0.082 | 0.298 ± 0.075 |
| SKBR3 BREAST | 1 ± 0.18 | 1.04 ± 0.14 | 1.04 ± 0.089 | 1.02 ± 0.11 | 1 ± 0.062 | 0.844 ± 0.026 | 0.361 ± 0.0087 | 0.249 ± 0.03 | 1.09 ± 0.12 | 0.942 ± 0.2 | 1.07 ± 0.18 | 1 ± 0.16 | 0.762 ± 0.06 | 0.892 ± 0.14 | 1.13 ± 0.039 | 0.865 ± 0.17 |
| HS57T BREAST | 0.973 ± 0.033 | 0.994 ± 0.088 | 1.01 ± 0.024 | 1.02 ± 0.05 | 1.05 ± 0.059 | 1.02 ± 0.061 | 1.01 ± 0.065 | 0.9383 ± 0.0032 | 0.907 ± 0.056 | 0.894 ± 0.049 | 0.955 ± 0.0027 | 0.94 ± 0.044 | 0.633 ± 0.069 | 0.535 ± 0.025 | 0.443 ± 0.013 | 0.414 ± 0.019 |
| MG63 BONE | 1.02 ± 0.024 | 0.998 ± 0.013 | 1.09 ± 0.041 | 1.08 ± 0.038 | 1.11 ± 0.046 | 1.08 ± 0.027 | 0.999 ± 0.033 | 1.01 ± 0.033 | 0.974 ± 0.0053 | 0.966 ± 0.015 | 0.99 ± 0.024 | 0.987 ± 0.013 | 0.816 ± 0.003 | 0.594 ± 0.021 | 0.298 ± 0.021 | 0.227 ± 0.007 |
| LM7 BONE | 0.988 ± 0.039 | 1.01 ± 0.034 | 1.1 ± 0.07 | 1.1 ± 0.036 | 1.12 ± 0.013 | 1.12 ± 0.1 | 0.963 ± 0.054 | 0.825 ± 0.016 | 0.965 ± 0.032 | 0.951 ± 0.058 | 1.04 ± 0.051 | 1.02 ± 0.011 | 0.921 ± 0.067 | 0.642 ± 0.037 | 0.25 ± 0.024 | 0.13 ± 0.007 |
| CCK81 LARGE INTESTINE | 0.85 ± 0.091 | 0.849 ± 0.081 | 0.77 ± 0.12 | 0.72 ± 0.06 | 0.628 ± 0.091 | 0.325 ± 0.12 | 0.0823 ± 0.018 | 0.076 ± 0.012 |  |  |  |  |  |  |  |  |
